Measurements published in patent US12252524B2, “GIP/GLP1 co-agonist compounds” (Eli Lilly and Company, priority 2018, dated 2025).
Where two headings read alike, the source gives them in different places. Numbered stars: 1 amine (or outer) side, 2 acyl side, 3 side chain; on linkers, the order of the positions; unused ones are H or OH. Square brackets hold non-standard residues; d marks the D form. Side chains are listed from the residue outwards. Peptide text beside a SMILES is read from it. * marks the point of attachment. C18 diacid = O=C(O)CCCCCCCCCCCCCCCCC(=O)*; αMePhe(2-F) = C[C@](N)(Cc1ccccc1F)C(=O)O; γGlu = O=C(O)[C@H](CCC(=O)[*:2])N[*:1]; αMeL = CC(C)C[C@](C)(N)C(=O)O; Orn = NCCC[C@H](N)C(=O)O; AEEA = NCCOCCOCC(=O)O; Aib = CC(C)(N)C(=O)O

Experiments:
human GLP-1R = human GLP-1R (Homo sapiens, UniProt P43220); test: GLP-1R HEK293 cell membrane [35S]GTPγS binding assay; format: biochemical; design: expressed in transfected cells; host or cells: HEK293 cells expressing human GLP-1R; membranes
human GLP-1R, sequence (P43220 24-463): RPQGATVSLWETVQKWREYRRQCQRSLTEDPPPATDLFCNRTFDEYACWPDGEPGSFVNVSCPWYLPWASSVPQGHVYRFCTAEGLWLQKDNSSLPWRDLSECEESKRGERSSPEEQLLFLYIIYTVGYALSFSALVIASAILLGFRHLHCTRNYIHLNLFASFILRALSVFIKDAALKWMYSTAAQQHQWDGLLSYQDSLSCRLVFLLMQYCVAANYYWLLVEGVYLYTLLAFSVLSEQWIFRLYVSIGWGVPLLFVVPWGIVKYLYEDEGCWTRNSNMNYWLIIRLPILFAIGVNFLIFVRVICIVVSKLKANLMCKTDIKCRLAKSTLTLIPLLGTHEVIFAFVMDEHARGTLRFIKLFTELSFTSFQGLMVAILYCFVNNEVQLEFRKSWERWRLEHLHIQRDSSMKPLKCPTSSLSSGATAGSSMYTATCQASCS
Procedure, shortened: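 Membranes from HEK293 cells expressing the receptor incubated with peptide and […] [35S]GTPγS in HEPES pH 7.4 buffer with NaCl, MgCl2, saponin and BSA, 30 min at room temperature. Gαs-bound label captured by anti-Gαs antibody/SPA beads and counted; EC50 from four-parameter logistic fit.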

in vivo [1] = details: male, Sprague Dawley, rat, plasma, other: intrajejunal, 1 umol/kg
Procedure: (§1) The pharmacokinetics of select Examples are evaluated following a single subcutaneous (SC) administration of 50 nMol/kg (dissolved in PBS, pH 7.4) or single 1 μmol/kg (mixed with 250 mM sodium decanoate (“C10”) and 12 mg/mL soybean trypsin inhibitor (SBTI)) intrajejunal (IJ) administration to male Sprague Dawley rats. […] Pharmacokinetic parameters are calculated using individual plasma concentrations. A qualified LC/MS method that measures the intact mass of the Example is used to determine plasma (K3 EDTA) concentrations. Each Example is tested with an analog peptide as an internal standard. Immunoaffinity based precipitation with anti-GIP/GLP1 antibodies is used to extract each test peptide and analog.

[2] = single subcutaneous 200 nMol/kg, male CD-1 mice
Procedure: (§2) The pharmacokinetics of select Examples are evaluated following a single subcutaneous administration of 200 nMol/kg to male CD-1 mice. […] Plasma (K3 EDTA) concentrations are determined using a qualified LC/MS method that measures the intact mass of the Examples. […] Instruments are combined for LC/MS detection.

in vivo [3] = details: male, cynomolgus monkey, plasma, sc, 50 nmol/kg
Procedure: (§3) Pharmacokinetics in male Cynomolgus Monkeys The pharmacokinetics of select Examples are evaluated following a single subcutaneous administration of 50 nMol/kg to male cynomolgus monkeys. […] Peptide plasma (K3 EDTA) concentrations are determined using a qualified LC/MS method that measured the intact mass of the compound. […] Instruments are combined for LC/MS detection.

in vivo [4] = details: male, CD-1, mouse, plasma, sc, 200 nmol/kg
Procedure: as §2

[5] = Proteolytic stability assay in 1% rat small intestinal fluid (rSIF); details: for percentage of peptide not cleaved using rSIF: 0 min, 1% rSIF, 37° C.; for remaining at 0.05 h, 0.4 mg/mL / remaining at 0.25 h, 0.4 mg/mL / remaining at 1 h, 0.4 mg/mL: rat, real gastrointestinal fluid or homogenate, pH 8
[6] = single subcutaneous 50 nMol/kg, male Sprague Dawley rats; mean (SD)
Procedure: as §1

[7] = single subcutaneous 50 nMol/kg, male cynomolgus monkeys
Procedure: as §3

[8] = single intrajejunal 1 μmol/kg with 250 mM C10 and 12 mg/mL SBTI, male Sprague Dawley rats; for Cmax/D: mean (SD)
Procedure: as §1

[9] = test system: CD8+ T cell depleted peripheral blood mononuclear cells; test: CD4+ T cell assay for potential clinical immunogenicity; details: for frequency of positive CD+ T cell response (CDI>2.5): CD4+ T cell assay
Procedure: The purpose of this study is to determine the relative potential for clinical immunogenicity of a compound.
CD8+ T cell depleted peripheral blood mononuclear cells are prepared and labeled with Carboxyfluorescein Diacetate Succinimidyl Ester (CFSE, Invitrogen) from a cohort of 10 healthy donors. […] Cultures are incubated for 7 days at 37° C. with 5% CO2. On day 7, samples are analyzed by flow cytometry using High Throughput Sampler (HTS). Data is analyzed using FlowJo® Software (FlowJo, LLC, TreeStar).

in vivo [10] = details: male, Sprague Dawley, rat, plasma, sc, 50 nmol/kg
Procedure: as §1

[11] = Peptide stability in 50% v/v pig small intestinal fluid with and without protease inhibitor; format: in vitro ADME; details: for remaining at 0.25 h / remaining at 0.5 h / remaining at 1 h: read-out: % peptide intact
Procedure: A peptide is incubated at 37° C. in 1% (v/v) rat small intestinal fluid or 50% (v/v) pig small intestinal fluid with and without a peptidase inhibitor. At different time points, samples are taken out, followed by quenching with 1% TFA in 50% ACN/water to stop the enzyme activity. The intact peptide at different time points is analyzed by high-performance liquid chromatography (HPLC) equipped with an ultraviolet (UV) detector or LC-MS/MS and normalized to the amount of peptide before mixing with the enzyme solution.

[12] = Examples 10 uM, KLH 0.33 μM, 7 days

Compound | EC50 (human GLP-1R) | Tmax (in vivo [1]) | AUCINF_D_obs [2] | Cmax/D [2] | CL/F (in vivo [3]) | Tmax (in vivo [3]) | half-life (in vivo [3]) | CL/F (in vivo [4]) | Tmax (in vivo [4]) | half-life (in vivo [4]) | percentage of peptide not cleaved using rSIF [5] | remaining at 0.05 h, 0.4 mg/mL [5] | remaining at 0.25 h, 0.4 mg/mL [5] | remaining at 1 h, 0.4 mg/mL [5] | AUCINF_D_obs [6] | Cmax/D [6] | AUCINF_D_obs [7] | Cmax/D [7] | AUCINF_D_obs [8] | Cmax/D [8] | other results
CC[C@H](C)[C@H](NC(=O)[C@H](CC(C)C)NC(=O)[C@H](Cc1ccc(O)cc1)NC(=O)[C@@H](CCC(=O)O)NC(=O)[C@@H](NC(=O)[C@H](Cc1ccccc1)NC(=O)[C@H](CCC(=O)O)NC(=O)C(C)(C)NC(=O)[C@H](CCC(N)=O)NC(=O)[C@H](C)NC(=O)[C@H](CCCCNC(=O)COCCOCCNC(=O)COCCOCCNC(=O)CC[C@H](NC(=O)CCCCCCCCCCCCCCCCCCC(=O)O)C(=O)O)NC(=O)[C@H](CCCN)NC(=O)[C@H](CC(=O)O)NC(=O)[C@H](CC(C)C)NC(=O)[C@](C)(CC(C)C)NC(=O)[C@@H](NC(=O)[C@H](CO)NC(=O)[C@H](Cc1ccc(O)cc1)NC(=O)[C@H](CC(=O)O)NC(=O)[C@H](CO)NC(=O)[C@@H](NC(=O)[C@](C)(Cc1ccccc1F)NC(=O)[C@@H](NC(=O)CNC(=O)[C@H](CCC(=O)O)NC(=O)C(C)(C)NC(=O)[C@@H](N)Cc1ccc(O)cc1)[C@@H](C)O)[C@@H](C)O)[C@@H](C)CC)[C@@H](C)CC)C(=O)N[C@@H](CCC(=O)O)C(=O)NCC(=O)NCC(=O)N1CCC[C@H]1C(=O)N[C@@H](CO)C(=O)N[C@@H](CO)C(=O)NCC(=O)N[C@@H](C)C(=O)N1CCC[C@H]1C(=O)N1CCC[C@H]1C(=O)N1CCC[C@H]1C(=O)N[C@@H](CO)C(N)=O [Example 3] | 0.421 nM | 0.33 h | 158.49 hr*kg*nmol/L/nmol | 4.42 kg*nmol/L/nmol | 0.29 mL/h/kg | 30 h | 181 h | 6.31 mL/h/kg | 6 h | 15 h | 100% | 68.8% | 25.8% | 0.3% | 371.8 (21.8) hr*kg*nmol/L/nmol | 4.71 (0.50) kg*nmol/L/nmol | 3420 hr*kg*nmol/L/nmol | 11.38 kg*nmol/L/nmol | 8.45 hr*kg*nmol/L/nmol | 0.47 (0.16) kg*nmol/L/nmol | frequency of positive CD+ T cell response (CDI>2.5) [9]: low; % Donor Response (CD4+ T cell response) [9, 12]: 0%; CL/F (in vivo [10]): 2.7 mL/h/kg; Tmax (in vivo [10]): 21.3 h; half-life (in vivo [10]): 32.1 h
CC[C@H](C)[C@H](NC(=O)[C@H](CC(C)C)NC(=O)[C@H](Cc1ccc(O)cc1)NC(=O)[C@@H](CCC(=O)O)NC(=O)[C@@H](NC(=O)[C@H](Cc1ccccc1)NC(=O)[C@H](CCC(=O)O)NC(=O)C(C)(C)NC(=O)[C@H](CCC(N)=O)NC(=O)[C@H](C)NC(=O)[C@H](CCCCNC(=O)COCCOCCNC(=O)COCCOCCNC(=O)CC[C@H](NC(=O)CCCCCCCCCCCCCCCCC(=O)O)C(=O)O)NC(=O)[C@H](CCCN)NC(=O)[C@H](CC(=O)O)NC(=O)[C@H](CC(C)C)NC(=O)[C@](C)(CC(C)C)NC(=O)[C@@H](NC(=O)[C@H](CO)NC(=O)[C@H](Cc1ccc(O)cc1)NC(=O)[C@H](CC(=O)O)NC(=O)[C@H](CO)NC(=O)[C@@H](NC(=O)[C@](C)(Cc1ccccc1F)NC(=O)[C@@H](NC(=O)CNC(=O)[C@H](CCC(=O)O)NC(=O)C(C)(C)NC(=O)[C@@H](N)Cc1ccc(O)cc1)[C@@H](C)O)[C@@H](C)O)[C@@H](C)CC)[C@@H](C)CC)C(=O)N[C@@H](CCC(=O)O)C(=O)NCC(=O)NCC(=O)N1CCC[C@H]1C(=O)N[C@@H](CO)C(=O)N[C@@H](CO)C(=O)NCC(=O)N[C@@H](C)C(=O)N1CCC[C@H]1C(=O)N1CCC[C@H]1C(=O)N1CCC[C@H]1C(=O)N[C@@H](CO)C(N)=O [Example 2] (H-Y[Aib]EGT[αMePhe(2-F)]TSDYSI[αMeL]LD[Orn]K([AEEA-AEEA-γGlu-C18 diacid])AQ[Aib]EFI[dE]YLIEGGPSSGAPPPS-NH2; N-terminus assumed) | 0.642 nM | 0.25 h | 77.23 hr*kg*nmol/L/nmol | 5.4 kg*nmol/L/nmol | 0.49 mL/h/kg | 24 h | 102 h | 12.9 mL/h/kg | 6 h | 7.55 h | 100% | 75.5% | 18.3% | 0.3% | 231.7 (9.6) hr*kg*nmol/L/nmol | 5.19 (0.20) kg*nmol/L/nmol | 2059 hr*kg*nmol/L/nmol | 11.7 kg*nmol/L/nmol | 6.6 hr*kg*nmol/L/nmol | 0.56 (0.40) kg*nmol/L/nmol | % peptide intact ([11]; no PI, control, 0 min): 100.00%; remaining at 0.25 h ([11]; pH 8, no PI, control, 15 min): 2.42%; remaining at 0.5 h ([11]; pH 8, no PI, control, 30 min): 1.9%; remaining at 1 h ([11]; pH 8, no PI, control, 60 min): 3.09%; remaining at 0.25 h ([11]; pH 8, with rSBTI (5 mg/mL), protease inhibitor, rSBTI (5 mg/mL), 15 min): 103%; remaining at 0.5 h ([11]; pH 8, with rSBTI (5 mg/mL), protease inhibitor, rSBTI (5 mg/mL), 30 min): 113%; remaining at 1 h ([11]; pH 8, with rSBTI (5 mg/mL), protease inhibitor, rSBTI (5 mg/mL), 60 min): 87.3%; % peptide intact ([11]; rSBTCI (0.5 mg/mL), 0 min): 100.00%; % peptide intact ([11]; rSBTCI (0.5 mg/mL), 15 min): 131.71%; % peptide intact ([11]; rSBTCI (0.5 mg/mL), 30 min): 126.53%; % peptide intact ([11]; rSBTCI (0.5 mg/mL), 60 min): 123.70%; % peptide intact ([11]; rSBTI (5 mg/mL), 0 min): 100.00%; frequency of positive CD+ T cell response (CDI>2.5) [9]: low; % Donor Response (CD4+ T cell response) [9, 12]: 22%; Median Response Strength in positive donors (CDI) [9, 12]: 3.68 CDI; CL/F (in vivo [10]): 4.32 mL/h/kg; Tmax (in vivo [10]): 14.7 h; half-life (in vivo [10]): 20.3 h
